In general, IC50 refers to the midpoint of a concentration-inhibition curve.

Where two headings read alike, the source gives them in different places.

Four molecules from publication PMC5216056 (Nature Communications, 2017) can be followed below.

Series [1] addresses hCB2R (Homo sapiens, UniProt P34972). Description: cell-based. It is filed as cell-based.
Series [2] addresses T1, GR (h) (Homo sapiens, UniProt P04150).
T1 construct: CEREP (contract assay)
T1 sequence (P04150 1-777): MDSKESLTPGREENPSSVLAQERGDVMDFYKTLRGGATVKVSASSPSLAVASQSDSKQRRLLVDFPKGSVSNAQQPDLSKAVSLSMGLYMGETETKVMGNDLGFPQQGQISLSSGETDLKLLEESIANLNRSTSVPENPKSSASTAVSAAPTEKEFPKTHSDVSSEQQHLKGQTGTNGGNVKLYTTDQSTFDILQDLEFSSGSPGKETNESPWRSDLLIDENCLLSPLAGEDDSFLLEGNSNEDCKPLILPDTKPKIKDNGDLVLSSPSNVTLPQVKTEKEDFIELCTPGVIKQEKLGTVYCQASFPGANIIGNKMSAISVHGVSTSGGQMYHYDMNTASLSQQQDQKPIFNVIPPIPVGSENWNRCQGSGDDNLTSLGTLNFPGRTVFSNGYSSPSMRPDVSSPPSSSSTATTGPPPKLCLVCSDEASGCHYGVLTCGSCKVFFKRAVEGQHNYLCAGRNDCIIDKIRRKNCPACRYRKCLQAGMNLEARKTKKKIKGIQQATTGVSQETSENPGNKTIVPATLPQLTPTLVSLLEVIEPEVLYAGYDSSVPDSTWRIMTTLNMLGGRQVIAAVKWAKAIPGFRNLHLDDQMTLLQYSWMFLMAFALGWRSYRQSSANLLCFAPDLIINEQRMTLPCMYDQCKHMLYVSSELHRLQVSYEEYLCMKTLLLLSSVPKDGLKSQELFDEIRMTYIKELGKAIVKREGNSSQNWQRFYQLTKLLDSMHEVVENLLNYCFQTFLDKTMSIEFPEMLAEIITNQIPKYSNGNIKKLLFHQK
The experiment in a line: CEREP panel. It is filed as binding. As to conditions: 10 µM.

Series [3] deals with T2, hCB1R (Homo sapiens, UniProt P21554).
T2 construct: host or cells: CHO
T2 sequence (P21554 whole entry): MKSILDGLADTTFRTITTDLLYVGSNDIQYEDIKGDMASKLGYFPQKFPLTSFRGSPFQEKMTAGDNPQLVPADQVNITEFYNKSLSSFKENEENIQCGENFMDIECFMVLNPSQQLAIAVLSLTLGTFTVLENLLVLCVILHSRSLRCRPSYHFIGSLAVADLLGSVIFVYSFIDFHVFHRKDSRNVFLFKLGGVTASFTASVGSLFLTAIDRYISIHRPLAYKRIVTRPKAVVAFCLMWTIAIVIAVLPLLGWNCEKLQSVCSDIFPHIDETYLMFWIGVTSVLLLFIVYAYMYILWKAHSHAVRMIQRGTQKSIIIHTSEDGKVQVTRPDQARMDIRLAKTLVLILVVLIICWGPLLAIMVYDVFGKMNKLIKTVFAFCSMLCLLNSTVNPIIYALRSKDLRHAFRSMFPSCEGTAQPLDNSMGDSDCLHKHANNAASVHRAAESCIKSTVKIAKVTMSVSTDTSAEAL
Description: cell-based. It counts as cell-based.

The conditions of series [4]: for Pct acceptor / Pct donor / Pct membrane: PAMPA; for Pct membrane: compound found in membranes; for Pampa Peff: membrane permeation coefficient. On the technique in general: The PAMPA barrier holds no transporters, so it reflects passive diffusion.
Series [5] relates to AEA reuptake in HaCaT cells. Description: cells. It is filed as cell-based, human. As to conditions: for IC50: read-out: AEA reuptake IC50 (95% CI) HaCaT cells; for AEA reuptake % inhibition, effect at 10 µM, HaCaT cells: 10 µM (values marked *).
In series [6] the target is T3, mCB2R (Mus musculus, UniProt P47936). The experiment in a line: biochemical. As to conditions: for pEC50 ± SEM cAMP mCB2R: mouse spleen. It is filed as biochemical. Details: from tissue; host or cells: spleen of male C57BL/6J mice.
T3 sequence (P47936 whole entry): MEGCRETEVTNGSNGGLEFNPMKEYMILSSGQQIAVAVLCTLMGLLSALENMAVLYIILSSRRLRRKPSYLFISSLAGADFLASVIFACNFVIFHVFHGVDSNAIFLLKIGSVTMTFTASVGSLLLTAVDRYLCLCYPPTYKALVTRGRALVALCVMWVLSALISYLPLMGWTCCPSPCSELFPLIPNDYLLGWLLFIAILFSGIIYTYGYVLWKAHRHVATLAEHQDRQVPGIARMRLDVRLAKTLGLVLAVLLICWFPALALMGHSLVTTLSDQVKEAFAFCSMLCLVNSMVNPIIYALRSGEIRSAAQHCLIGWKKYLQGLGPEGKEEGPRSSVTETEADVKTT
The target of series [7] is T3, mCB2R. The experiment in a line: biochemical. As to conditions: for pKi ± SEM mCB2R: mouse spleen membranes. More on the design: from tissue; host or cells: spleen of male C57BL/6J mice. It is filed as binding.
For series [8] the following is noted: 1 μM.
Series [9] deals with mouse P-gp (Mus musculus, UniProt P21447). As to conditions: efflux ratio.
Chain of mouse P-gp (P21447 whole entry): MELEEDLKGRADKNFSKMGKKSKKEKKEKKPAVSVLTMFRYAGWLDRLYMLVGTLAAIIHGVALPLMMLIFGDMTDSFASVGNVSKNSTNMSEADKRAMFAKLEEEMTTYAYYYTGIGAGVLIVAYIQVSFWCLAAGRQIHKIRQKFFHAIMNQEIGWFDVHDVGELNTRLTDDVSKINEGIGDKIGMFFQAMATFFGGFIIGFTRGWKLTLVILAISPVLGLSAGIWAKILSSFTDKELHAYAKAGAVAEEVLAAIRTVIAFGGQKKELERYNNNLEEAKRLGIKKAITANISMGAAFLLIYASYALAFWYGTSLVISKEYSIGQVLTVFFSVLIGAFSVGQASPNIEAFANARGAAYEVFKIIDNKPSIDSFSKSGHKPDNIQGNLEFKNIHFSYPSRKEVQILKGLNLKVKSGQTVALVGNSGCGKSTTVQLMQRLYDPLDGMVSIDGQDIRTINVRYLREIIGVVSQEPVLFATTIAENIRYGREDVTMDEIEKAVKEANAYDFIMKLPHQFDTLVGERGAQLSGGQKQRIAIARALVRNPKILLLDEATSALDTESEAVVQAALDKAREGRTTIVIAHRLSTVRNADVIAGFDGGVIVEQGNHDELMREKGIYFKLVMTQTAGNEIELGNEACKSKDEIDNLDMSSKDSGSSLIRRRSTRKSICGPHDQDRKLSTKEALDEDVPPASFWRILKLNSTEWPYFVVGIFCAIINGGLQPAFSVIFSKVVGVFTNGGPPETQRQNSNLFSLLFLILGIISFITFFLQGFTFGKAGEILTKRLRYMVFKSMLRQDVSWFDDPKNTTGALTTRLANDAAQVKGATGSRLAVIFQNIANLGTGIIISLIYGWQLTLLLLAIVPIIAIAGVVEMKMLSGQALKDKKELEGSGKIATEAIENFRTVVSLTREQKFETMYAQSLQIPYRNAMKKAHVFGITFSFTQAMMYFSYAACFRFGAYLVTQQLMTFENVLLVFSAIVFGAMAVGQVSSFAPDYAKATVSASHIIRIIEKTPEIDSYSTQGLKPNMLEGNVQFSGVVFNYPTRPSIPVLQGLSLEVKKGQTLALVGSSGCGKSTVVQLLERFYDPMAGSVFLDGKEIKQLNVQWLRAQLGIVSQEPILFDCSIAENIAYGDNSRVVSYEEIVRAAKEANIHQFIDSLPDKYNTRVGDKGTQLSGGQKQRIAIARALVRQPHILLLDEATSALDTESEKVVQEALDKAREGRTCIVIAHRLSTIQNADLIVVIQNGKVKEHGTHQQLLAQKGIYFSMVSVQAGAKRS
The target of series [10] is T4, human NAPE-PLD (Homo sapiens, UniProt Q6IQ20).
T4 construct: Full length human cDNA NAPE-PLD was obtained from Natsuo Ueda; expressed in transfected cells; host or cells: HEK293T (transient), membrane fraction
T4 sequence (Q6IQ20 whole entry): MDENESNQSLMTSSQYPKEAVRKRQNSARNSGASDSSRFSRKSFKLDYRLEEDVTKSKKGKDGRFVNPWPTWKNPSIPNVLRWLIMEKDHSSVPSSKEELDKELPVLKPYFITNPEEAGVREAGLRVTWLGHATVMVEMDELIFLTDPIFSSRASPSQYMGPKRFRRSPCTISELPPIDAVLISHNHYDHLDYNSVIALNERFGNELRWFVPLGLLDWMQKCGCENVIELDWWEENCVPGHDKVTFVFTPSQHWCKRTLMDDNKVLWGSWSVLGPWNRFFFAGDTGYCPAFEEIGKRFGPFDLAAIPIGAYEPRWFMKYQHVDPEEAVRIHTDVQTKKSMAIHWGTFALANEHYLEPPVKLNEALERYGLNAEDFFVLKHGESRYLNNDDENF
The experiment in a line: NAPE-PLD inhibition. It is filed as biochemical. The note with it: 10 µM. Here is the method:
Full length human cDNA NAPE-PLD was obtained from Natsuo Ueda[58] and cloned into mammalian expression vector pcDNA3.1, containing a C-terminal Flag-tag and genes for ampicillin and neomycin resistance. All plasmids were grown in XL-10 Z-competent cells and prepped (Maxi Prep, Qiagen). Sequence analysis for the confirmation of the sequences was performed at the Leiden Genome Technology Centre.
HEK293T cells (source: Dutch Cancer Institute) were cultured at 37 °C and 7% CO2 in DMEM with glutamax, penicillin (100 μg ml^−1), streptomycin (100 μg ml^−1) and 10% New Born Calf Serum iron supplemented (Hyclone SH30072.03). Cells were passaged twice a week to appropriate confluence. Twenty-four hours before transfection 10^7 cells were seeded on a 15 cm dish. Two hours before transfection, the medium was refreshed. Transfection is performed with PEI in a ratio of 3:1 with human NAPE-PLD or Mock pcDNA3.1Neo, 20 μg per dish. Medium is refreshed after 24 h and cells are harvested after 72 h. Cell suspensions are centrifuged at 1,000g for 10 min, supernatant removed and pellets frozen at −80 °C until further use.
Cell pellets are re-suspended in lysis buffer 1: 20 mM Hepes, 2 mM DTT, 0.25 M sucrose, 1 mM MgCl2, 2.5 U ml^−1 benzonase and incubated 30 min on ice. The cytosolic fraction (supernatant) is separated from the membranes by ultra-centrifugation (32,000 rpm for 30 min 100,000g). The pellet is resuspended in buffer 2: 20 mM Hepes, 2 mM DTT (membrane fraction). All samples are stored at −80 °C. Enzyme concentrations are determined using a Bradford assay.
The membrane protein fraction from transient overexpression of NAPE-PLD in HEK293T cells was diluted to 0.4 mg ml^−1 in assay buffer: 50 mM Tris-HCl (pH 7.5), 0.02% Triton X-100, 150 mM NaCl (ref. [60]). […] Relevant concentrations of compounds are prepared in DMSO. The assay is performed in a dark Greiner 96-well plate, end volume 100 μl. The compound or DMSO is incubated with membrane protein lysate (final concentration 0.04 mg ml^−1) for 30 min at 37 °C. A sample without membrane protein lysate is incorporated for background subtraction. Then, substrate is added (final concentration 1 μM) and the measurement is started immediately on a TECAN infinite M1000 pro at 37 °C (excitation 485 nm, emission 535 nm), scanning every 2 min for 1 h.

Series [11] deals with T5, N muscle-type (h) (Homo sapiens, UniProt P02708+P07510+P11230+Q07001).
T5 construct: CEREP (contract assay)
T5 sequence (P02708 21-457): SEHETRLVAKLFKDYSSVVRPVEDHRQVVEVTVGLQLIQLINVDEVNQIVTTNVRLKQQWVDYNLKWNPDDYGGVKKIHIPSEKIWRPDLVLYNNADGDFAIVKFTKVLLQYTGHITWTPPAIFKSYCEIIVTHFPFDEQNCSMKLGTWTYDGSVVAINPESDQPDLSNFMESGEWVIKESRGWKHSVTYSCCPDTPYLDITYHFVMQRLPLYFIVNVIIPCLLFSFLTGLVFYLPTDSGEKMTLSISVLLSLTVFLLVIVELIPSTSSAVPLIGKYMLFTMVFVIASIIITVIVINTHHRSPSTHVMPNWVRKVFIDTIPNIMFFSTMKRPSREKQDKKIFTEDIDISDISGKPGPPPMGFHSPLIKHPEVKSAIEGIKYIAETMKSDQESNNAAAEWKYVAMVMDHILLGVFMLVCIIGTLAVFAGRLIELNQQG
T5 sequence (P11230 24-501): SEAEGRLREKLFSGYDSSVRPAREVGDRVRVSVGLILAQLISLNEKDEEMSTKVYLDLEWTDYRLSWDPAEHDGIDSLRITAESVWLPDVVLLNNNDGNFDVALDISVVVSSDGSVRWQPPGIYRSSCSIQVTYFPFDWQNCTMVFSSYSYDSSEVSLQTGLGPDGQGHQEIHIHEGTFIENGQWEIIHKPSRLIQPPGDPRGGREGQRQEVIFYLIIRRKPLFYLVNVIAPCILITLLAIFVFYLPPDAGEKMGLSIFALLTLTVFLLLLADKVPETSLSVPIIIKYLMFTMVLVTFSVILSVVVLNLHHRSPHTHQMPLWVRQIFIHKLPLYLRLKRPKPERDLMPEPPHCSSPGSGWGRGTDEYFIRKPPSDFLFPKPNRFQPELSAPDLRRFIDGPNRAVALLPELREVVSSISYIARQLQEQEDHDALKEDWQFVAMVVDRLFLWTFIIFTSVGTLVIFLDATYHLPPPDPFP
T5 sequence (Q07001 22-517): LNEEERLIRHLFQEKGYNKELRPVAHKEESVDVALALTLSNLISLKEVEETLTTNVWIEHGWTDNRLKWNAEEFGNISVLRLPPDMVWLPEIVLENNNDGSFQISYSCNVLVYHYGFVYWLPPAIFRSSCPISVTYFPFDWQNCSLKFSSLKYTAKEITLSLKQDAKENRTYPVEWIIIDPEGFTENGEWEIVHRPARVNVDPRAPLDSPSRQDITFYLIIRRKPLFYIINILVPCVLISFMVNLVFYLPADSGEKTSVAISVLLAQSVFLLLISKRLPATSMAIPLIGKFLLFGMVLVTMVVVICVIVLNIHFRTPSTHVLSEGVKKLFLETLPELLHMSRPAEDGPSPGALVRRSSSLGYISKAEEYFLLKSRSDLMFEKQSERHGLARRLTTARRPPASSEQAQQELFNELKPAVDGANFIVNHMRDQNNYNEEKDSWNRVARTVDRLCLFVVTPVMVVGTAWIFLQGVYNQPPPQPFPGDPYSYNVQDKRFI
T5 sequence (P07510 23-517): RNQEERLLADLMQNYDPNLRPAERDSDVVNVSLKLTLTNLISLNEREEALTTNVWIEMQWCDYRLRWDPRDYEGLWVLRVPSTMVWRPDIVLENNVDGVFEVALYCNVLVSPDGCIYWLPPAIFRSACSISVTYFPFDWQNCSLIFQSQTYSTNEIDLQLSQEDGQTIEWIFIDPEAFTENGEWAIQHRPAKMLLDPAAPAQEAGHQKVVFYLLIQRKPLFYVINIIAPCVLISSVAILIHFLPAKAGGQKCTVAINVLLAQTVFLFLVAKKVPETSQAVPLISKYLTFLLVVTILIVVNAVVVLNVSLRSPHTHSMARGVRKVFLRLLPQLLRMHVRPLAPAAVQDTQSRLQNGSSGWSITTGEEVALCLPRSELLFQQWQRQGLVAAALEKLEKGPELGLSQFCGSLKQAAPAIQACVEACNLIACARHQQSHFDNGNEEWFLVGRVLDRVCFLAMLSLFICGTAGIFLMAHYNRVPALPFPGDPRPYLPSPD
Description: CEREP panel. It is filed as binding. The note with it: 10 µM.

[12] abbreviates: antagonists in presence of EC80 of CP55940.
[13] abbreviates: normalized to 10 µM CP55940, negative = inhibition of EC80 of CP55940.

Chain of hCB2R (P34972 whole entry): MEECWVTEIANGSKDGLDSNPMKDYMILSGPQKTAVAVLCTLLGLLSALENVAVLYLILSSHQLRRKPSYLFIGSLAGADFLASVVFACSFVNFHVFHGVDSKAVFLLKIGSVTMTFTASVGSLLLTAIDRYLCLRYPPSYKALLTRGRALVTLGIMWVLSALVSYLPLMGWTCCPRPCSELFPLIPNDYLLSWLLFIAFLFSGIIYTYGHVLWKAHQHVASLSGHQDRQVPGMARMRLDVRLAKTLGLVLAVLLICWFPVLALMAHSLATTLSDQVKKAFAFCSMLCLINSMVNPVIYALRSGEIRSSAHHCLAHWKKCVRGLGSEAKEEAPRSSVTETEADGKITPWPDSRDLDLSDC

On to `Cc1ccc2c(c1)Cc1c(C(=O)NN3CCCCC3)nn(-c3ccc(Cl)cc3Cl)c1-2` [Gp-1a], for which the “pEC50 ± SEM β-AR recruitment hCB2R” value in [1] (setting [12]) came out at 5.86 ± 0.16. In addition, in series [1] (setting [13]), the “Emax ± SEM β-AR recruitment hCB2R” value was -147 ± 11%. Also, the “% inhibition GR (h)” value in series [2] came to 71%. Also, in [3], the “Emax ± SEM β-AR recruitment hCB1R” value is listed as -83 ± 7 and the “pEC50 ± SEM β-AR recruitment hCB1R” value is < 5. Besides, in series [4], the Pct acceptor was determined as 0%, the Pct donor came to 29.7%, the Pct membrane was determined as 70.3% and the “Pampa Peff” value is listed as 0 cm/s*10-6. Further, the “AEA reuptake Efficacy (% inhibition) HaCaT cells” value in series [5] (from dose-response) is reported as 90%. Besides, the IC50 in series [5] stood at 3.27 µM. Also, the “CB2R Selectivity cAMP (mouse)” value in series [6] (10^(pEC50 CB2R-pEC50 CB1R)) was 25 fold. Moreover, the “pEC50 ± SEM cAMP mCB2R” value in [6] was 7.25 ± 0.32. The “Emax cAMP mCB2R” value in series [6] (normalized to 10 µM CP55940) is on record as -25%. The “CB2R Selectivity (binding, mouse)” value in [7] (10^(pKi CB2R-pKi CB1R)) amounted to 20 fold. In series [7], the “pKi ± SEM mCB2R” value came to 7.68 ± 0.23. In [8], this molecule showed a CL microsomes human of 13 µL/min/mg protein. For the same molecule, in series [9], the “P-gp (ER) mouse” value is 1.1. Also, the “NAPE-PLD % inhibition at 10 µM ± SD” value in series [10] was 3 ± 5%.

On to `CCCCCCC(C)(C)c1cc(OC)c(C2=C[C@H]3CC[C@]2(CO)C3(C)C)c(OC)c1` [HU910], for which the “pEC50 ± SEM β-AR recruitment hCB2R” value in series [1] (setting [12]) is 7.75 ± 0.03. Moreover, in series [1] (setting [13]), the “Emax ± SEM β-AR recruitment hCB2R” value came to 48 ± 6%. Also, the “% inhibition GR (h)” value in [2] was 4%. Also, in [3], the “Emax ± SEM β-AR recruitment hCB1R” value is reported as -97 ± 4 and the “pEC50 ± SEM β-AR recruitment hCB1R” value worked out at 5.31 ± 0.06. In series [4], the Pct acceptor is listed as 1%, the Pct donor is recorded as 42%, the Pct membrane was determined as 57% and the “Pampa Peff” value amounted to 0.45 cm/s*10-6. Also, in series [5], the “AEA reuptake % inhibition, effect at 10 µM, HaCaT cells” value (“AEA reuptake % inhibition, effect” below) came out at 38% and the IC50 was > 10 µM. Moreover, the “pEC50 ± SEM cAMP mCB2R” value in series [6] worked out at 8.98 ± 0.38. In [6] (normalized to 10 µM CP55940), the “Emax cAMP mCB2R” value is reported as 67%. Further, in series [7], the “pKi ± SEM mCB2R” value is reported as 6.88 ± 0.17. For the same molecule, in series [8], the CL microsomes human is 90 µL/min/mg protein. In series [9], the “P-gp (ER) mouse” value is 3.0. Moreover, in series [10], the “NAPE-PLD % inhibition at 10 µM ± SD” value was found to be 8 ± 13%.

Turning to `CCCC(C)(C)c1ccc2c(c1)OC(C)(C)[C@@H]1CC=C(C)C[C@@H]21` [JWH133], in [1], the “CB2R Selectivity β-AR recruitment” value is 275 fold, the “Emax ± SEM β-AR recruitment hCB2R” value is listed as 62 ± 11 and the “pEC50 ± SEM β-AR recruitment hCB2R” value was 7.81 ± 0.22. For the same molecule, the “% inhibition GR (h)” value in series [2] amounted to 7%. In addition, in [3], the “Emax ± SEM β-AR recruitment hCB1R” value amounted to 40 ± 7 and the “pEC50 ± SEM β-AR recruitment hCB1R” value is on record as 5.37 ± 0.05. Also, in series [4], the Pct acceptor is 2.3%, the Pct donor amounted to 36.1%, the Pct membrane was determined as 61.7% and the “Pampa Peff” value stood at 1.86 cm/s*10-6. Also, in series [5], the “AEA reuptake % inhibition, effect” value is recorded as 39% and the IC50 is > 10 µM. Moreover, in series [6], the “Emax cAMP mCB2R” value worked out at 95 and the “pEC50 ± SEM cAMP mCB2R” value turned out to be 7.75 ± 0.33. In series [7], the “CB2R Selectivity (binding, mouse)” value turned out to be 40 fold and the “pKi ± SEM mCB2R” value worked out at 7.69 ± 0.23. Further, the CL microsomes human in [8] was 38 µL/min/mg protein. Also, the “P-gp (ER) mouse” value in [9] was found to be 1.7. The “NAPE-PLD % inhibition at 10 µM ± SD” value in series [10] is recorded as 3 ± 4%.

For `Cc1c(C(=O)c2cccc3ccccc23)c2cccc3c2n1[C@H](CN1CCOCC1)CO3` [WIN55212-2], the “% inhibition GR (h)” value in series [2] is listed as 63%. Further, in series [11], the “% inhibition N muscle-type (h)” value is 7%. Besides, in series [4], the Pct acceptor stood at 0.5%, the Pct donor amounted to 50.6%, the Pct membrane is given as 49% and the “Pampa Peff” value is listed as 0.25±0.22 cm/s*10-6. Moreover, in series [5], the “AEA reuptake % inhibition, effect” value amounted to 24% and the IC50 is > 5 µM. Moreover, in [6], the “pEC50 ± SEM cAMP mCB2R” value was 8.37 ± 0.23. The “Emax cAMP mCB2R” value in [6] (normalized to 10 µM CP55940) is 97%. Besides, the “pKi ± SEM mCB2R” value in series [7] was found to be 7.28 ± 0.17. In [8], this molecule returned a CL microsomes human of 194 µL/min/mg protein. In addition, the “NAPE-PLD % inhibition at 10 µM ± SD” value in series [10] is listed as 8 ± 6%.
